Assay results reported in patent US6863211B2, “Omega-hydrofluoroalkyl ethers, precursor carboxylic acids and derivatives thereof, and their preparation and application” (3M Innovative Properties Company, priority 1994, dated 2005).

Legend:
[1] = Comparative boiling points; type: physicochemical
Source text: The unexpectedly low boiling points of compounds of the present invention render the compounds useful in processes involving temperature-sensitive substrates such as plastics. (For example, in vapor-phase cleaning, a substrate is rinsed in the condensing vapor of a boiling fluid, and in condensation heating, a substrate is heated by immersion in a boiling fluid.) In such applications, a lower-boiling fluid is preferred so as to avoid damage to the substrate. While it is known that boiling points can be reduced by selection of a compound having fewer carbon atoms, this may result in a boiling point reduction of 25° C. or more, in addition to adversely affecting other properties such as solvency.

[2] = Rinse agent in co-solvent cleaning of oil-contaminated aluminum coupon; settings: 50° C., about 60 seconds methyl decanoate then about 60 seconds rinse agent, aluminum coupon with light hydrocarbon oil
Method: A sample of this compound was also evaluated for use as a rinse agent in co-solvent cleaning applications. (Such cleaning applications are taught, for example, in International Patent Publication No. WO 92/22678 (Petroferm Inc.). Organic esters such as methyl decanoate have found utility as solvating agents in two-phase cleaning applications using perfluorohexane as the carrier liquid and rinse agent.) Methyl decanoate and C4F9OC2F4H were placed in separate containers and heated to 50° C. in an ultrasonic bath. A 50 mm×25 mm×1.5 mm aluminum coupon was contaminated with 0.0831 g of a light hydrocarbon oil. The contaminated coupon was first immersed in the methyl decanoate for about 60 seconds and then immersed in the C4F9OC2F4H for about 60 seconds. The C4F9OC2F4H rinsed 100 percent (as determined by weight difference) of the oil and the methyl decanoate from the coupon.

[3] = Fire extinguishing agent evaluation, NFPA 2001 standard, modified cup burner; settings: cup burner modified to handle liquid compounds
Method: Omega-hydrofluoroalkyl ether compounds of this invention were evaluated as fire extinguishing agents using the National Fire Protection Association 2001 Fire Protection Standard, with a cup burner modified to handle liquid compounds. The results, shown below in Table D, indicate that the compounds could be effective agents for fire extinguishing, explosion suppression, and as flammable atmosphere inerting agents.

[4] = Spot-free drying: water displacement from glass and stainless steel coupons; settings: 0.2% by weight C4F9OC2F4OCF2CONHC2H4OH dissolved in the ether, 45° C., ultrasonic agitation
Method: A sample of the compound was also evaluated for use in spot-free drying applications such as taught in U.S. Pat. No. 5,125,978 (Flynn et al.). A water displacement composition was prepared by dissolving 0.2% by weight of C4F9OC2F4OCF2CONHC2H4OH in C4F9—O—C2F4H. The solution was heated to 45° C. in an ultrasonic bath. Using the procedure described in U.S. Pat. No. 5,125,978, test coupons of glass and stainless steel were wetted with water and subsequently immersed into this solution with ultrasonic agitation. All water was displaced within 60 seconds.

[5] = Solubilities of selected hydrocarbon solvents in the ether hydride (precision cleaning); type: physicochemical
Method: A sample of this compound was evaluated for use in precision cleaning applications by measuring the solubilities of selected hydrocarbon solvents in the sample.

Compound: FC(F)OC(F)(F)C(F)(F)C(F)(F)C(F)(F)C(F)(F)C(F)(F)C(F)(F)C(F)(F)F [C8F17OCF2H, C8F17—O—CF2H]
- Boiling Point [1]: 139 °C

Compound: FC(F)C(F)(F)OC(F)(F)C(F)(F)C(F)(F)C(F)(F)C(F)(F)C(F)(F)C(F)(F)F [C7F15OC2F4H, C7F15—O—C2F4H]
- Boiling Point [1]: 131 °C

Compound: FC(F)C(F)(F)C(F)(F)C(F)(F)C(F)(F)OC(F)(F)C(F)(F)C(F)(F)C(F)(F)C(F)(F)F [C5F11OC5F10H, C5F11—O—(CF2)5H]
- Boiling Point [1]: 150 °C

Compound: FC(F)C(F)(F)C(F)(F)C(F)(F)C(F)(F)C(F)(F)C(F)(F)C(F)(F)C(F)(F)F [C8F17CF2H, reference compound]
- Boiling Point [1]: 136 °C

Compound: FC(F)(F)C(F)(F)C(F)(F)C(F)(F)C(F)(F)C(F)(F)F [perfluorohexane, reference compound]
- Oil and methyl decanoate rinsed from the coupon (by weight difference) [2]: 98.5%

Compound: FC(F)C(F)(F)C(F)(F)C(F)(F)OC(F)(F)C(F)(F)C(F)(F)C(F)(F)C(F)(F)C(F)(F)F [C6F13OC4F8H, C6F13—O—C4F8—H]
- Boiling Point [1]: 149 °C

Compound: FC(F)OC(F)(F)C(F)(F)C(F)(F)C(F)(F)C(F)(F)C(F)(F)C(F)(F)C(F)(F)C(F)(F)F [C9F19OCF2H]
- Boiling Point [1]: 155 °C

Compound: FC(F)C(F)(F)C(F)(F)OC(F)(F)C(F)(F)C(F)F [HC3F6OC3F6H]
- Extinguishment concentration [3]: 5.7 vol. %

Compound: FC(F)C(F)(F)OC(F)(F)C(F)(F)C(F)(F)C(F)(F)F [C4F9OC2F4H, C4F9—O—C2F4H]
- Oil and methyl decanoate rinsed from the coupon (by weight difference) [2]: 100%
- Time for all water to be displaced [4]: ≤ 60 s
- Solubility of chloroform in the ether hydride ([5]; Chloroform): 45 % by weight
- Solubility of ethylene glycol in the ether hydride ([5]; Ethylene glycol): less than 15 % by weight
- Solubility of hydrocarbon solvent in the ether hydride ([5]; hexane, heptane, toluene, acetone, 2-butanone, 4-methyl-2-pentanone, ethyl acetate, methanol, ethanol, isopropanol, dimethyl formamide, trans-1,2-dichloroethylene, isopropyl ether): up to 50 % by weight
- Solubility of light hydrocarbon oil in the ether hydride ([5]; light hydrocarbon oil): less than 0.05 % by weight
- Solubility of o-xylene in the ether hydride ([5]; o-Xylene): 19 % by weight
- Extinguishment concentration [3]: 5.6 vol. %

Compound: FC(F)C(F)(F)C(F)(F)C(F)(F)C(F)(F)C(F)(F)C(F)(F)C(F)(F)C(F)(F)C(F)(F)F [C9F19CF2H, reference compound]
- Boiling Point [1]: 154 °C

Compound: FC(F)C(F)(F)OC(F)(F)C(F)(F)C(F)(F)C(F)(F)C(F)(F)C(F)(F)C(F)(F)C(F)(F)F [C8F17OC2F4H, C8F17—O—C2F4H]
- Boiling Point [1]: 148 °C
